Test results published in patent US9868705B2, “Tetra-aryl cyclobutane inhibitors of androgen receptor action for the treatment of hormone refractory cancer” (The Board of Trustees of the University of Illinois, priority 2013, dated 2018).
Where a chain is given by its changes, count along the chain named. Like-named read-outs stand apart in the source and are kept apart here.

Key:
[1] = molecular target: T1, T877A mutant androgen receptor (Homo sapiens, UniProt P10275, T878A); experiment: FKBP51 endogenous gene expression in LNCaP-XIP cells; assay type: cell-based
T1 construct: endogenous in cells; host or cells: LNCaP-XIP
T1 sequence (P10275 1-920 T878A): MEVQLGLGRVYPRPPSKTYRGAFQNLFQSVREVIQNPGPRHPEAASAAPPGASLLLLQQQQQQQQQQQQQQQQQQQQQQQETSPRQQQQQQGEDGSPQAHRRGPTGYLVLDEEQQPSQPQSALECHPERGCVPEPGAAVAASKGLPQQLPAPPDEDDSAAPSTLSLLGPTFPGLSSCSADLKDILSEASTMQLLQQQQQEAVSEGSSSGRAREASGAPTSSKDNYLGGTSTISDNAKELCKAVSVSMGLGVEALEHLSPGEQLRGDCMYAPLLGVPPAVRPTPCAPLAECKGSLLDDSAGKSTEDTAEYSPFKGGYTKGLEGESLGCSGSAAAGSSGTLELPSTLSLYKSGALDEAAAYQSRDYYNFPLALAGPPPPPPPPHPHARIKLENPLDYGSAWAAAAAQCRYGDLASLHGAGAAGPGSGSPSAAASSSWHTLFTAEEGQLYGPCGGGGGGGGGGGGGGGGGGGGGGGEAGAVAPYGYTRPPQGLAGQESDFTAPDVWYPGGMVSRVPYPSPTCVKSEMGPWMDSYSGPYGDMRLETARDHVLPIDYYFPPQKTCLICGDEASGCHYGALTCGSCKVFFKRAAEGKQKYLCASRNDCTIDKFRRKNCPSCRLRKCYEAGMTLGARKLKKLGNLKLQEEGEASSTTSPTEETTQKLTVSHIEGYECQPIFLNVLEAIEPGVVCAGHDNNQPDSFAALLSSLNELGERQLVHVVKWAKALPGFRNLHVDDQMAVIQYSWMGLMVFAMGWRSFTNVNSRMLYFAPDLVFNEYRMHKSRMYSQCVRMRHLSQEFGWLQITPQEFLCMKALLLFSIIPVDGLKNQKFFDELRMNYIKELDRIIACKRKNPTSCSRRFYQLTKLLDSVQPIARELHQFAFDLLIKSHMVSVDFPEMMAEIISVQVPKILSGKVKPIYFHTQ
Excerpt: (§1) FIG. 44 depicts data for dose-dependent inhibition of androgen receptor-dependent endogenous gene expression of FKBP51 by Compound 1 of Example IV in LNCaP cells producing exclusively T877A mutant androgen receptor (LNCaP-XIP) and LNCaP cells transfected with wild type androgen receptor (LNCaP-androgen receptor, ratio of wild type to T877A receptor is ca. 3:1).
(§2) To more fully characterize the selectivity of compound 1 for the mutant receptor, we measured its inhibitory potential against the WT and T877A mutant receptor in an AR-dependent luciferase transcription assay in CV-1 cells (FIGS. 43A and B).

[2] = tested on: wild type androgen receptor; experiment: FKBP51 endogenous gene expression in LNCaP-AR cells (wild type AR overexpressed); assay type: cell-based, human; details: at 20 M (so in the source)
Excerpt: as §1, §2

wild type AR = molecular target: T2, wild type AR (Homo sapiens, UniProt P10275); experiment: MMTV-luciferase transcription assay in CV-1 cells, wild type AR; assay type: cell-based; details: wild type AR; values given in μM; read-out: MMTV transcription assay in CV-1 cells WT (IC50)
T2 construct: expressed in transfected cells; host or cells: CV-1
T2 sequence (P10275 1-920): T1 sequence (P10275 1-920 T878A) with A878T
Excerpt: (§3) These compounds were screened using an AR-responsive MMTV transcription assay in CV-1 cells, utilizing both wild type and T877A (LNCaP) AR. […]

T877A (LNCaP) AR = molecular target: T3, T877A (LNCaP) AR (Homo sapiens, UniProt P10275, T878A); experiment: MMTV-luciferase transcription assay in CV-1 cells, T877A AR; assay type: cell-based
T3 construct: expressed in transfected cells; host or cells: CV-1
T3 sequence (P10275 1-920 T878A): T1 sequence (P10275 1-920 T878A)
Excerpt: as §3

[3] = tested on: LNCaP and VCaP cell lines; experiment: General toxicity screen in LNCaP and VCaP cell lines; assay type: cell-based, human; details: at concentrations as high as 25 μM
AR-VP16 construct = experiment: MMTV-luciferase reporter gene assay with AR-VP16 construct (AR/DNA binding); assay type: cell-based
Excerpt: Accordingly, we analyzed the disruption of AR/DNA binding using a luciferase reporter gene assay transfected with an AR-VP16 construct that is constitutively active upon DNA binding, regardless of the ability of AR to recruit transcriptional machinery (FIG. 40A). Simultaneously, we examined CV-1 cells transfected with an AR construct that is only transcriptionally active when there is a positive interaction between the NTD and C-terminal LBD ([…]) (FIG. 40B).

LNCaP cells = experiment: LNCaP cell proliferation

COc1cc([C@H]2[C@H](c3ccccc3)[C@H](c3cc(OC)nc(OC)n3)[C@H]2c2ccccc2)nc(OC)n1 [CB-22]
concentration at which maximal inhibition is obtained ([1]; FKBP51 expression, T877A mutant receptor): 2 µM | inhibition of FKBP51 gene expression ([1]; LNCaP-XIP, 2 μM): complete inhibition | inhibition of FKBP51 gene expression [2]: approximately 50% | IC50 (wild type AR): 18 µM | increase in potency for T877A mutant over WT (T877A (LNCaP) AR; AR-dependent luciferase transcription assay in CV-1 cells): approximately 10 fold | IC50 (T877A (LNCaP) AR; CV1 transient transfection, MMTV-Luciferase reporter, read-out: IC50 T877A): 0.81 µM | IC50 (T877A (LNCaP) AR; T877A AR, values given in μM, read-out: MMTV transcription assay in CV-1 cells T877A (IC50)): 1.1 µM | toxicity [3]: complete lack of toxicity | inhibition of AR/DNA binding (AR-VP16 construct): inhibitory activity | more potent in LNCaP cells than in VCaP cells (anti-proliferative activity) (LNCaP cells; LNCaP vs VCaP): 10-15 fold | inhibition of LNCaP cell proliferation (LNCaP cells; androgen-stimulated LNCaP cells): slow cell-growth in a dose-dependent manner
